From US11492325B2, “Compounds as inhibitors of sodium channels” (Human BioMolecular Research Institute, priority 2016, dated 2022)
Where two headings read alike, the source gives them in different places.

How the values were obtained:
[1] = test system: normal human induced pluripotent stem cell (hiPSC) cardiomyocyte; conditions: for WT-Fold Prolongation: APD
[2] = test system: cardiomyocytes derived from hiPSCs from a LQTS3 patient
[3] = WT cardiomyocytes, AP prolongation
[4] = LQT-3 cardiomyocytes, AP shortening

SMILES | WT-Fold Prolongation ([1]; normal hiPSC cardiomyocytes) | Cessation of Beating ([1]; normal hiPSC cardiomyocytes) | WT-Prolongation Dose ([1]; normal hiPSC cardiomyocytes) | LQT-Cessation Dose ([2]; LQT3 cardiomyocytes) | LQT-Fold Shortening ([2]; LQT3 cardiomyocytes) | LQT-Shortening Dose ([2]; LQT3 cardiomyocytes) | other results
Cc1cccc(Cl)c1OCC(N)C1CCCCC1.Cl (centres unmarked) [Compound 76] | None | 66 µM | None | 66 µM | 1.244 | – | –
COCCNC(COc1cnccc1C)c1ccccc1 (centres unmarked) [Compound 123] | – | – | – | – | – | – | WT-EC50 (μM) Prolongation [1, 3]: Does Not Prolong AP; LQT-Fold Shortening ([2]; LQT-3 cardiomyocytes): 1.402; LQT-EC50 (μM) Shortening [2, 4]: Shortens
Cc1ccc(OCC(C)N)c(C)c1.Cl (centres unmarked) [Compound 64] | 2.621 | None | – | None | None | None | WT-EAD Dose ([1]; normal hiPSC cardiomyocytes): 133 µM
Cc1cccc(C)c1OCC(=NOCc1ccccc1)C1CC1 [Compound 46] | None | – | None | – | 1.67 | – | Cessation of Beating [1]: None; LQT-Cessation Dose [2]: None
CC(=O)NC(C)COc1c(C)cccc1C (centres unmarked) [Compound 53] | None | None | None | None | None | None | –
Cc1cc(C)cc(OCC(N)c2ccccc2)c1 (centres unmarked) [Compound 104b] | – | – | – | – | – | – | EC50 ([2]; read-out: LQT-EC50 (μM)-Shortening, 'No AP' wraps to 'No AP shortening'): 0.87 µM
NC(COc1ccc(C(F)(F)F)nc1)c1ccccc1 (centres unmarked) [Compound 117] | – | – | – | – | – | – | WT-EC50 (μM) Prolongation [1, 3]: Does Not Prolong AP; LQT-Fold Shortening ([2]; LQT-3 cardiomyocytes): Does Not Shorten; LQT-Shortening Dose (μM) ([2]; LQT-3 cardiomyocytes): Does Not Shorten; LQT-EC50 (μM) Shortening [2, 4]: Does Not Shorten
CNC(COc1cccc(C)c1C)c1ccccc1 (centres unmarked) [Compound 34, 2-(2,3-dimethylphenoxy)-N-methyl-1-phenylethanamine] | None | 133 µM | None | 66 µM | 1.29 | – | –
COc1ccccc1OCC(C)N (centres unmarked) [Compound 52, 1-(2-Methoxyphenoxy)propan-2-amine] | 2.499 | None | – | None | None | None | WT-EAD Dose ([1]; normal hiPSC cardiomyocytes): 133 µM
NC(COc1ccccn1)c1ccccc1 (centres unmarked) [Compound 20, 1-phenyl-2-(pyridin-2-yloxy)ethanamine] | None | None | None | None | None | None | WT-Cessation Dose ([1]; pyridyl derivatives): No cessation of beating; WT-EC50 (μM) Prolongation ([1]; pyridyl derivatives): Does Not Prolong AP; LQT-EC50 (μM) Shortening ([2]; pyridyl derivatives): Does Not Shorten; LQT-Fold Shortening ([2]; pyridyl derivatives): Does Not Shorten; LQT-Shortening Dose ([2]; pyridyl derivatives): Does Not Shorten
Cc1ccc(OCC(N)C2CC2)cc1C.Cl (centres unmarked) [Compound 77] | None | 66 µM | None | 200 µM | 1.18 | – | –
NC(COc1cc(C(F)(F)F)cc(C(F)(F)F)c1)c1ccc2ccccc2c1 (centres unmarked) [Compound 132] | – | – | – | – | – | – | WT-EC50 (μM) Prolongation [1, 3]: Does Not Prolong AP; LQT-Fold Shortening ([2]; LQT-3 cardiomyocytes): 1.205; LQT-EC50 (μM) Shortening [2, 4]: Shortens; LQT-Cessation Dose (μM) ([2]; LQT-3 cardiomyocytes, cessation of beating): No cessation of beating
Cc1ccnc(OCC(N)c2ccccc2)c1 (centres unmarked) [Compound 95, 2-((4-methylpyridin-2-yl)oxy)-1-phenylethan-1-amine] | 2.68 | None | – | 22 µM | 1.22 | – | WT-EAD Dose ([1]; normal hiPSC cardiomyocytes): 133 µM
Cc1ccc(OCC(N)c2ccccc2)c(C)n1 (centres unmarked) [Compound 119] | – | – | – | – | – | – | WT-EC50 (μM) Prolongation [1, 3]: Does Not Prolong AP; WT-Cessation Dose (μM) ([1]; WT cardiomyocytes, cessation of beating): No cessation of beating; LQT-Fold Shortening ([2]; LQT-3 cardiomyocytes): 1.123; LQT-EC50 (μM) Shortening [2, 4]: Shortens
NC(COc1cncc(C(F)(F)F)c1)c1ccccc1 (centres unmarked) [Compound 116] | – | – | – | – | – | – | WT-EC50 (μM) Prolongation [1, 3]: Does Not Prolong AP; LQT-Fold Shortening ([2]; LQT-3 cardiomyocytes): 1.422; LQT-EC50 (μM) Shortening [2, 4]: Shortens
CC(N)COc1ccccn1 (centres unmarked) [Compound 48, (Pyridin-2-yloxy)propan-2-amine] | None | None | None | None | None | None | WT-Cessation Dose ([1]; pyridyl derivatives): No cessation of beating; WT-EC50 (μM) Prolongation ([1]; pyridyl derivatives): Does Not Prolong AP; LQT-EC50 (μM) Shortening ([2]; pyridyl derivatives): Does Not Shorten; LQT-Fold Shortening ([2]; pyridyl derivatives): Does Not Shorten; LQT-Shortening Dose ([2]; pyridyl derivatives): Does Not Shorten
Cc1cccc(C)c1OC[C@H](N)C1CC1.Cl [Compound 61] | 3.829 | – | – | – | None | None | Cessation of Beating [1]: None; WT-EAD Dose ([1]; human, 5 min): 66 µM; LQT-Cessation Dose ([2]; human, 5 min): 200 µM
Cc1ccc(C(N)COc2c(C)cccc2C)cc1 (centres unmarked) [Compound 17, 2-(2,6-dimethylphenoxy)-1-p-tolylethanamine] | None | 66 µM | None | 66 µM | 1.58 | – | –
Cc1cccc(C)c1OCC(C)NCc1ccccc1 (centres unmarked) [Compound 42, 1-(2,6-dimethylphenoxy)-N-benzylpropan-2-amine] | 1.684 | – | – | – | 1.26 | – | Cessation of Beating ([1]; human, 5 min): 200 µM; LQT-Cessation Dose ([2]; human, 5 min): 133 µM
COCCNC(COc1cnccc1C(F)(F)F)c1ccccc1 (centres unmarked) [Compound 124] | – | – | – | – | – | – | WT-EC50 (μM) Prolongation [1, 3]: Does Not Prolong AP; LQT-Fold Shortening ([2]; LQT-3 cardiomyocytes): 1.601; LQT-EC50 (μM) Shortening [2, 4]: Shortens
Cc1cccc(C)c1OCC(O)C(C)(C)C (centres unmarked) [Compound 22] | – | – | – | None | 1.29 | – | –
Cc1cc(C)cc(OCC(NCCO)c2ccccc2)c1 (centres unmarked) [Compound 92] | None | 66 µM | None | 66 µM | 1.41 | – | –
C[C@@H](N)COc1ccccc1Cl [Compound 58] | 2.392 | None | – | None | None | None | WT-EAD Dose ([1]; normal hiPSC cardiomyocytes): 200 µM
CCNC(C)COc1c(C)cccc1C (centres unmarked) [Compound 41, 1-(2,6-dimethylphenoxy)-N-ethylpropan-2-amine] | 5.338 | None | – | None | None | None | WT-EAD Dose ([1]; normal hiPSC cardiomyocytes): 133 µM
Cc1ccc(OCC(N)c2ccccc2)cc1C.Cl (centres unmarked) [Compound 75] | None | 66 µM | None | 66 µM | 1.370 | – | –
Cc1cc(C)cc(OCC(NCCN2CCOCC2)c2ccccc2)c1 (centres unmarked) [Compound 98] | 1.54 | – | – | 66 µM | 1.3 | – | –
NC(COc1cc(C(F)(F)F)ccn1)c1ccccc1 (centres unmarked) [Compound 97, 1-phenyl-2-((4-(trifluoromethyl)pyridin-2-yl)oxy)ethan-1-amine] | None | None | None | None | 1.1 | – | WT-EAD Dose ([1]; normal hiPSC cardiomyocytes): 133 µM
CC(N)COc1ccccc1C(F)(F)F (centres unmarked) [Compound 51, 1-(2-(Trifluoromethyl)phenoxy)propan-2-amine] | None | None | None | None | 1.37 | – | –
CCNC(COc1cccc(C)c1C)c1ccccc1 (centres unmarked) [Compound 33, 2-(2,3-dimethylphenoxy)-N-ethyl-1-phenylethanamine] | None | 133 µM | None | 22 µM | None | None | –
